In ChEMBL document CHEMBL4483862, “Open-source discovery of chemical leads for next-generation chemoprotective antimalarials” (2018):

Test system: Plasmodium berghei
Assay: Luciferase/luciferin-expressing antifolate-resistant parasites were used to infect a culture of HepG2 cells that were pre-incubated with compounds. Infected hepatocytes emit light due to the luciferase reaction. Assay results are presented as the percent inhibition of light emission compared to control. […]
Format: functional
Conditions: sporozoite; for IC90: read-out: LUCIFERASE INFECTION ASSAY - IC90

Row | SMILES | IC90 | other results
1 | O=C(C1CC1)N1CCc2sccc2C1c1ccc(Cl)cc1 (stereo not given) | > 10.4 µM | IC50 (PBLUC_HILL_SLOPE 3.12, PBLUC_R_SQUARED 0.0785, read-out: LUCIFERASE INFECTION ASSAY - IC50): 9.69 µM
2 | O=c1c2ccccc2sc2nc(C3CCCCC3)n(Cc3ccco3)c(=O)c12 | > 8.41 µM | IC50 (PBLUC_HILL_SLOPE 3.17, PBLUC_R_SQUARED 0.712, read-out: LUCIFERASE INFECTION ASSAY - IC50): 4.57 µM
3 | CSc1nncn1-c1ccccc1 | 15.4 µM | IC50 (PBLUC_HILL_SLOPE 3.17, PBLUC_R_SQUARED 0.315, read-out: LUCIFERASE INFECTION ASSAY - IC50): 7.69 µM
4 | NC1=C(c2ccccc2)C(=O)c2ccccc21 | > 14.9 µM | IC50 (PBLUC_HILL_SLOPE 3.17, PBLUC_R_SQUARED 0.165, read-out: LUCIFERASE INFECTION ASSAY - IC50): > 14.9 µM
5 | Cc1nn(Cc2ccccc2Cl)c(Cl)c1C(=O)OC(C(=O)c1c[nH]c2ccccc12)c1ccccc1 (stereo not given) | > 10 µM | IC50 (PBLUC_HILL_SLOPE 3.17, PBLUC_R_SQUARED 0.115, read-out: LUCIFERASE INFECTION ASSAY - IC50): 6.36 µM
6 | COC(=O)C1=C(C)NC(C)=C(C(=O)OC)C1c1cc(NC(=O)c2cccc(OC(F)F)c2)ccc1OC(F)F | 8.9 µM | IC50 (PBLUC_HILL_SLOPE 3.17, PBLUC_R_SQUARED 0.755, read-out: LUCIFERASE INFECTION ASSAY - IC50): 4.45 µM
7 | Cc1cc(C)n(-c2nc(-c3ccccc3)cc(N3CCCC3)n2)n1 | 8.47 µM | IC50 (PBLUC_HILL_SLOPE 3.13, PBLUC_R_SQUARED 0.498, read-out: LUCIFERASE INFECTION ASSAY - IC50): 4.2 µM
8 | CCCn1c(-c2ccc(OC)cc2)nc2c(c(=O)c3ccccc3n2C)c1=O | 7.12 µM | IC50 (PBLUC_HILL_SLOPE 3.15, PBLUC_R_SQUARED 0.522, read-out: LUCIFERASE INFECTION ASSAY - IC50): 3.55 µM
9 | COCCCN1C(=O)N(Cc2ccc3ccccc3c2)C(=O)C12CCN(Cc1ccc(C)cc1)CC2 | > 6.8 µM | IC50 (PBLUC_HILL_SLOPE 3.14, PBLUC_R_SQUARED 0.039, read-out: LUCIFERASE INFECTION ASSAY - IC50): 4.02 µM
10 | Cc1cc(C)n2nc(SCC(=O)c3c(-c4ccccc4)[nH]c4ccccc34)nc2n1 | 5.12 µM | IC50 (PBLUC_HILL_SLOPE 3.17, 7.12, PBLUC_R_SQUARED 0.979, 0.666, read-out: LUCIFERASE INFECTION ASSAY - IC50): 4.67 µM
11 | C=CCNC(=O)C(C)Sc1nnc(-c2ccc(C)cc2)c(-c2ccc(C)cc2)n1 (stereo not given) | 2.06 µM | IC50 (PBLUC_HILL_SLOPE 3.18, 2.13, PBLUC_R_SQUARED 0.929, 0.663, read-out: LUCIFERASE INFECTION ASSAY - IC50): 0.807 µM
12 | CN(C)c1ccc(CNCC2(c3ccnc(-c4cccc(N(C)C)c4)c3)CC2)cc1 | > 10 µM | IC50 (PBLUC_HILL_SLOPE 3.17, PBLUC_R_SQUARED 0.141, read-out: LUCIFERASE INFECTION ASSAY - IC50): 9.64 µM
13 | O=C(CN1CCN(c2cccc(Cl)c2)CC1)Nc1cc(C2CC2)nn1-c1ccccc1 | > 10 µM | IC50 (PBLUC_HILL_SLOPE 3.16, PBLUC_R_SQUARED 0.0582, read-out: LUCIFERASE INFECTION ASSAY - IC50): 6.87 µM
14 | O=C(Nc1ccc(Oc2ccnc3cc(Cl)ccc23)cc1)c1ccco1 | 2.99 µM | IC50 (PBLUC_HILL_SLOPE 3.16, PBLUC_R_SQUARED 0.555, read-out: LUCIFERASE INFECTION ASSAY - IC50): 1.49 µM
15 | c1ccc(CCNCc2cn(-c3ccccc3)nc2-c2cccs2)cc1 | > 10 µM | IC50 (PBLUC_HILL_SLOPE 3.19, PBLUC_R_SQUARED 0.352, read-out: LUCIFERASE INFECTION ASSAY - IC50): 9.18 µM
16 | N#Cc1ccc(C(=O)Nc2cccc(Oc3ccccc3)c2)cc1 | > 10 µM | IC50 (PBLUC_HILL_SLOPE 3.19, PBLUC_R_SQUARED 0.12, read-out: LUCIFERASE INFECTION ASSAY - IC50): 6.33 µM
17 | CC(=O)Nc1cccc(-c2cn3c(-c4ccc(Cl)cc4)cnc3cn2)c1 | 3.69 µM | IC50 (PBLUC_HILL_SLOPE 3.14, PBLUC_R_SQUARED 0.81, read-out: LUCIFERASE INFECTION ASSAY - IC50): 1.83 µM
18 | FC(F)(F)c1cccc(-c2noc(CCc3nc4ccccc4[nH]3)n2)c1 | 7.22 µM | IC50 (PBLUC_HILL_SLOPE 3.19, PBLUC_R_SQUARED 0.657, read-out: LUCIFERASE INFECTION ASSAY - IC50): 3.63 µM
19 | C=CCc1c(C)[nH]c2c(-c3ccccc3)cnn2c1=O | 12.1 µM | IC50 (PBLUC_HILL_SLOPE 3.12, PBLUC_R_SQUARED 0.621, read-out: LUCIFERASE INFECTION ASSAY - IC50): 6 µM
20 | Cc1c(Sc2ccc(Cl)cc2)c2ccccn2c1C(=O)c1cccs1 | > 10 µM | IC50 (PBLUC_HILL_SLOPE 3.16, PBLUC_R_SQUARED 0.487, read-out: LUCIFERASE INFECTION ASSAY - IC50): 6.35 µM

Row | SMILES | IC90 | other results
21 | OCCN1N=C2c3cc(Cl)ccc3SCC2C1c1ccc(Cl)cc1 (stereo not given) | > 8.7 µM | IC50 (PBLUC_HILL_SLOPE 3.12, PBLUC_R_SQUARED 0.594, read-out: LUCIFERASE INFECTION ASSAY - IC50): 7.08 µM
22 | Cn1cc(-c2cnc3cnc(-c4ccc5c(c4)OCO5)cn23)cn1 | > 10.3 µM | IC50 (PBLUC_HILL_SLOPE 3.19, PBLUC_R_SQUARED 0.356, read-out: LUCIFERASE INFECTION ASSAY - IC50): 9.57 µM
23 | Cc1ccc(-n2nnnc2COc2cc(C)ccc2C(C)C)c(C)c1 | > 9.81 µM | IC50 (PBLUC_HILL_SLOPE 3.14, PBLUC_R_SQUARED 0.65, read-out: LUCIFERASE INFECTION ASSAY - IC50): 6.61 µM
24 | N#C/C(=C\c1cc(Cl)cc(Cl)c1O)c1ccc([N+](=O)[O-])cc1 | 6.14 µM | IC50 (PBLUC_HILL_SLOPE 3.19, PBLUC_R_SQUARED 0.599, read-out: LUCIFERASE INFECTION ASSAY - IC50): 3.08 µM
25 | O=c1nc(-c2ccc(Cl)cc2)oc2ccccc12 | 10.8 µM | IC50 (PBLUC_HILL_SLOPE 3.1, PBLUC_R_SQUARED 0.539, read-out: LUCIFERASE INFECTION ASSAY - IC50): 5.33 µM
26 | CC/C=C1/CC(=O)N(c2ccccc2)C1=O | 14.2 µM | IC50 (PBLUC_HILL_SLOPE 3.2, PBLUC_R_SQUARED 0.213, read-out: LUCIFERASE INFECTION ASSAY - IC50): 7.15 µM
27 | FC(F)(F)c1cc(NCc2ccccc2C(F)(F)F)nc(-c2ccccn2)n1 | 7.12 µM | IC50 (PBLUC_HILL_SLOPE 3.13, PBLUC_R_SQUARED 0.711, read-out: LUCIFERASE INFECTION ASSAY - IC50): 3.52 µM
28 | Cc1nn(C)c2nc(-c3cccs3)cc(C(=O)Nc3ccccc3C(=O)NCC3CCCO3)c12 (stereo not given) | > 10 µM | IC50 (PBLUC_HILL_SLOPE 3.11, PBLUC_R_SQUARED 0.411, read-out: LUCIFERASE INFECTION ASSAY - IC50): 5.11 µM
29 | O=C1Nc2ccc(Cl)cc2/C1=C/c1cn(Cc2ccccc2)nc1-c1cccnc1 | > 10 µM | IC50 (PBLUC_HILL_SLOPE 3.18, PBLUC_R_SQUARED 0.696, read-out: LUCIFERASE INFECTION ASSAY - IC50): 5.57 µM
30 | Cc1ccc(CC(=O)NCc2ccc(C#N)cc2)cc1 | 8.45 µM | IC50 (PBLUC_HILL_SLOPE 3.17, PBLUC_R_SQUARED 0.517, read-out: LUCIFERASE INFECTION ASSAY - IC50): 4.23 µM
31 | CC(C)(C)c1ccc(-n2c(SCc3ccc(Cl)cc3)nnc2-c2ccccc2Cl)cc1 | > 7.04 µM | IC50 (PBLUC_HILL_SLOPE 3.18, PBLUC_R_SQUARED 0.744, read-out: LUCIFERASE INFECTION ASSAY - IC50): > 7.04 µM
32 | CC(C)Oc1ccc(Nc2cc3c(cn2)nc(NCc2ccccc2)n3C)cc1 | > 10 µM | IC50 (PBLUC_HILL_SLOPE 3.16, PBLUC_R_SQUARED 0.219, read-out: LUCIFERASE INFECTION ASSAY - IC50): 5.76 µM
33 | CC(=O)NCCCc1ccc(C(=O)COC(=O)c2ccccc2-n2cnnn2)cc1 | 2.51 µM | IC50 (PBLUC_HILL_SLOPE 3.15, PBLUC_R_SQUARED 0.801, read-out: LUCIFERASE INFECTION ASSAY - IC50): 1.25 µM
34 | CCN(CC)c1ccc(/C=N/NC(=S)NC(C)C)c(O)c1 | > 10 µM | IC50 (PBLUC_HILL_SLOPE 3.12, PBLUC_R_SQUARED 0.566, read-out: LUCIFERASE INFECTION ASSAY - IC50): 7.29 µM
35 | CC1=NN(c2ccccc2)C(=O)/C1=C\c1c(C)nn(-c2ccccc2)c1Sc1nc2ccccc2s1 | > 10 µM | IC50 (PBLUC_HILL_SLOPE 3.11, PBLUC_R_SQUARED 0.577, read-out: LUCIFERASE INFECTION ASSAY - IC50): 6.6 µM
36 | COc1ccc(CCC(=O)NNC(=O)c2ccc3ccccc3n2)cc1Br | 5.65 µM | IC50 (PBLUC_HILL_SLOPE 3.11, PBLUC_R_SQUARED 0.471, read-out: LUCIFERASE INFECTION ASSAY - IC50): 2.79 µM
37 | FC(F)(F)c1cc(N/N=C2/CCSc3sccc32)cc(C(F)(F)F)c1 | > 8.33 µM | IC50 (PBLUC_HILL_SLOPE 3.14, PBLUC_R_SQUARED 0.463, read-out: LUCIFERASE INFECTION ASSAY - IC50): 4.15 µM
38 | O=C(Nc1nc2ccccc2[nH]1)c1cn(Cc2ccccc2)nc1-c1cccnc1 | > 10 µM | IC50 (PBLUC_HILL_SLOPE 3.18, PBLUC_R_SQUARED 0.533, read-out: LUCIFERASE INFECTION ASSAY - IC50): 7.1 µM
39 | Cc1nn(C(=O)c2c(Cl)cccc2Cl)c(C)c1Cc1c(Cl)cccc1Cl | > 7.71 µM | IC50 (PBLUC_HILL_SLOPE 3.14, PBLUC_R_SQUARED 0.492, read-out: LUCIFERASE INFECTION ASSAY - IC50): 5.28 µM
40 | CC(=O)Nc1ccc(Nc2cc3[nH]c(-c4cccc(F)c4)cc3cn2)cc1 | 9.16 µM | IC50 (PBLUC_HILL_SLOPE 3.2, PBLUC_R_SQUARED 0.299, read-out: LUCIFERASE INFECTION ASSAY - IC50): 4.6 µM
